Measured values reported in US8633005B2, “Isocyclomaltooligosaccharide(s), isocyclomaltooligosaccharide-forming enzyme, their preparation and uses” (Hayashibara Co., Ltd., priority 2004, dated 2014).

Assay: Amino-carbonyl reaction with glycine
Type: physicochemical
Conditions: 5% (w/v) saccharide + 1% (w/v) glycine, pH 7.0, 120° C., blank subtracted
Experimental: ICG5, used in Experiment 15 and commercially available super high-grade glycine were dissolved in deionized water, and then admixed with phosphate buffer to make into an aqueous ICG5 solution containing 5% (w/v) of ICG5 and 1% (w/v) glycine, adjusted to pH 7.0. As a control, an aqueous α-cyclodextrin (α-CD) solution containing α-CD and glycine was prepared in the same manner using α-CD in place of ICG5. Four milliliters each of the solution was put in a glass tube, sealed and then heated at 120° C. for 30, 60, or 90 min. After cooling the solutions in ambient temperature, the degrees of coloring of the solutions were measured to estimate the degree of amino-carbonyl reaction. As a blank test, a solution containing glycine only was heated in the same manner. The degree of coloring was defined as an absorbance at 480 nm using a 1 cm-cell after subtracting the absorbance of the blank test.

Measured: Degree of coloring

OCC1OC2OC3C(CO)OC(OC4C(CO)OC(OC5C(CO)OC(OCC6OC(OC1C(O)C2O)C(O)C(O)C6O)C(O)C5O)C(O)C4O)C(O)C3O [ICG5, cyclo{→6)-α-D-glucopyranosyl-(1→4)-α-D-glucopyranosyl-(1→4)-α-D-glucopyranosyl-(1→4)-.α-D-glucopyranosyl-(1→4)α-D-glucopyranosyl-(1→}]
0.00 A480 nm: heating time 0 min | heating time 30 min | heating time 60 min | heating time 90 min
